We go through ten compounds from ChEMBL document CHEMBL4257572, “Semisynthesis of ent-norstrobane diterpenoids as potential inhibitor for factor Xa” (Bioorg Med Chem Lett, 2018).

The target in the assay is Coagulation factor X (Homo sapiens, UniProt P00742). Kind of assay: Inhibition of human coagulation factor 10a using Z-D-Arg-Gly-Arg-pNA.2HCl as substrate preincubated for 15 mins followed by substrate addition by UV absorption assay.
Sequence of Coagulation factor X (P00742 41-179 limits assumed): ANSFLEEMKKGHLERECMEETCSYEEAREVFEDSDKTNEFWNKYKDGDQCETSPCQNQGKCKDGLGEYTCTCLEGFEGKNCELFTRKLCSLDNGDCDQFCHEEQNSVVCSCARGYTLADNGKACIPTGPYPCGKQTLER
Sequence of Coagulation factor X (P00742 235-488 limits assumed): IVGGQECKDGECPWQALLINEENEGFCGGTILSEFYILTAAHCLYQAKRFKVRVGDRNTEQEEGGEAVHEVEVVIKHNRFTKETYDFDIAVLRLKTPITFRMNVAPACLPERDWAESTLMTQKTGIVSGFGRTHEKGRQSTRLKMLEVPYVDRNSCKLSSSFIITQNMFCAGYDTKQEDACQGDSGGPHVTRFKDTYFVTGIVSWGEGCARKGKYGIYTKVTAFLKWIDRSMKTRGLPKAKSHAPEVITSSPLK
With `CC1(C)OCC([C@]2(C)C=C3CC[C@@H]4[C@](C)(CO)C[C@@H](O)C[C@@]4(C)[C@@H]3CC2)O1` (stereo not given in full), the IC50 stood at 7.16 µM.
The value for `CC(=O)OC[C@]1(C)C[C@@H](OC(C)=O)C[C@@]2(C)[C@@H]3CC[C@](C)(O)CC=C3CC[C@H]12` was 0.081 µM.
`CC(=O)O[C@@H]1CC[C@@]2(C)[C@@H]3CC[C@](C)([C@@H](O)CO)C=C3CC[C@@H]2C1(C)C` yielded an IC50 of 3.03 µM.
`CC(=O)O[C@@H]1CC[C@@]2(C)[C@@H]3CC[C@](C)(O)CC=C3CC[C@@H]2C1(C)C` registered an IC50 of 5.73 µM.
On to `CC(=O)OC[C@]1(C)C[C@@H](OC(C)=O)C[C@@]2(C)[C@@H]3CC[C@](C)(CO)C=C3CC[C@H]12`, for which inhibition was half-maximal at 1.07 µM (IC50).
As for `CC(=O)OC[C@]1(C)C[C@@H](OC(C)=O)C[C@@]2(C)[C@@H]3CC[C@](C)([C@@H](O)CO)C=C3CC[C@H]12`, the figure is 5.62 µM; as for `CC1(C)OCC([C@]2(C)C=C3CC[C@@H]4C(C)(C)[C@H](O)CC[C@@]4(C)[C@@H]3CC2)O1` (stereo not given in full), 1.02 µM; as for `CC(=O)O[C@@H]1CC[C@@]2(C)[C@@H]3CC[C@](C)(CO)C=C3CC[C@@H]2C1(C)C`, 8.45 µM.
As for `CC1(C)[C@H](O)CC[C@@]2(C)[C@@H]3CC[C@](C)([C@@H](O)CO)C=C3CC[C@H]12` [DARUTIGENOL], half-maximal inhibition (IC50) was put at 11.4 µM.
In turn, `C[C@@]1(CO)C[C@@H](O)C[C@@]2(C)[C@@H]3CC[C@](C)([C@@H](O)CO)C=C3CC[C@H]12` [KIRENOL] came in with an IC50 of 2.57 µM.

What is called IC50 is the concentration at which inhibition is half-maximal. A lower IC50 goes with higher potency.
